“And” between values parts separate entries of the source, which are not always exact repeats. Equal values may be shown once.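 In this assay, cells in 96-well plates receive the compound at five concentrations for 48 hours. Endpoints are linearly interpolated between the surrounding concentrations. The concentration for 50% growth inhibition is given as GI50. TGI denotes the concentration required for complete inhibition of growth.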
What was measured:
Test in all cases: inhibition of tumour cell growth, NCI panel, 48 h
[1] = system: U251 CNS
[2] = system: SK-MEL-2 melanoma
[3] = system: RPMI-8226 leukemia
[4] = system: A549 NSCLC
[5] = system: HOP-92 NSCLC
[6] = system: SF-268 CNS
[7] = system: KM12 colon
[8] = system: COLO 205 colon
[9] = system: BT-549 breast
[10] = system: PC-3 prostate

Row | Compound | TGI [1] | TGI [2] | TGI [3] | TGI [4] [µM] | TGI [5] | TGI [6] | TGI [7] | TGI [8] | GI50 [9] | TGI [9] | GI50 [1] | GI50 [10] | TGI [10] [µM] | GI50 [2] | GI50 [3] | GI50 [4] [µM] | GI50 [6] | GI50 [7] | GI50 [8] [µM] | GI50 [5]
1 | [O-][n+]1c2cc(CN3CCOCC3)c(CN3CCOCC3)cc2[n+]([O-])c2c(O)cccc21 | 7.09 µM | 12.1 µM | 12.2 µM | > 25.3 | 10.4 µM | 3.6 µM | 8.55 µM | 11.1 µM |  |  |  |  |  |  |  |  |  |  |  | 
2 | N#CC(C(=O)CCC(=O)Nc1ccc(Cl)c(Cl)c1)c1ccc(Cl)cc1 (stereo unspecified) | > 100 µM | > 100 µM | > 100 µM | > 100 | > 100 µM | > 100 µM | > 100 µM |  |  |  |  |  |  |  |  |  |  |  |  | 
3 | O=C(NC1C=Nc2ccccc2NC1=O)c1ccccc1Cl (stereo unspecified) | > 100 µM | > 100 µM |  | > 100 | > 100 µM | > 100 µM | > 100 µM | 52.7 µM |  |  |  |  |  |  |  |  |  |  |  | 
4 | O=S(=O)(N/N=C/c1ccc(Cl)cc1Cl)c1ccccc1 | > 100 µM | > 100 µM | > 100 µM | > 100 | 94.9 µM | > 100 µM | > 100 µM | > 100 µM |  |  |  |  |  |  |  |  |  |  |  | 
5 | NS(=O)(=O)c1ccc(NC(=O)c2cccc3c(Nc4ccc(S(N)(=O)=O)cc4)c4ccccc4nc23)cc1 | > 100 µM | 82.3 µM | 39.1 µM | > 100 | > 100 µM | 65.3 µM | 25.6 µM | > 100 µM |  |  |  |  |  |  |  |  |  |  |  | 
6 | COc1ccc(/C=N\O[Si](C)(C)C(C)(C)C)cc1O[Si](C)(C)C(C)(C)C | 36 µM | 31.5 µM | 39 µM | 34.9 | 37.6 µM | 39.4 µM | 32.7 µM | 52.2 µM |  |  |  |  |  |  |  |  |  |  |  | 
7 | O=[N+]([O-])c1cc2c(ccc3occc32)o1 | 16.4 µM | 4.56 µM | 44.3 µM | 12.4 |  | 12.8 µM | 7.31 µM | 3.12 µM | 1.87 µM | 4.4 µM | 3.56 µM | 10.2 µM | 38.4 | 2.03 µM | 4 µM | 3.21 | 2.21 µM | 2.78 µM | 1.57 | 
8 | COc1cc2c(cc1OCCCCCn1c3ccccc3c3ccccc31)N=C[C@@H]1CCCN1C2=O | 3.19 µM | 3.24 µM |  | 3.02 |  | 3.74 µM | 3.74 µM | 4.57 µM | 2.03 µM | 4.31 µM | 1.59 µM | 2.36 µM | 7.73 | 1.67 µM |  | 1.57 | 1.91 µM | 1.96 µM | 2.11 | 
9 | c1ccc2c(CN3CCC(C4CCN(Cc5cccc6ccccc56)CC4)CC3)cccc2c1 | 25.5 µM and 47.6 µM | 15.2 µM and 37.1 µM | 15 µM and 10.9 µM | > 100 | 12 µM and 32.9 µM | 28.4 µM and > 100 µM | 33.7 µM and > 100 µM | 3.39 µM and 3.65 µM |  | > 100 µM |  |  | > 100 |  |  |  | 8.99 µM and 78.7 µM | 10.7 µM and 33.5 µM |  | 
10 | O=c1cc(-c2ccc(O)cc2)oc2cc(O)cc(O)c12 | > 100 µM | 80.3 µM | > 100 µM | > 100 | 56.6 µM | 83.9 µM | 82.9 µM | > 100 µM |  |  |  |  |  |  |  |  |  |  |  | 
11 | NS(=O)(=O)c1ccc(N2N=C(c3cccs3)CC2c2ccccc2O)cc1 (stereo unspecified) | 3.73 µM | 5.16 µM | 5.29 µM | 7.06 |  | 4.48 µM | 1.94 µM | 1.88 µM | 2.05 µM | 9.15 µM | 0.998 µM | 1.05 µM | 4.38 | 1.2 µM | 1.16 µM | 1.16 | 1.16 µM | 0.809 µM | 0.577 | 
12 | CCCCCCCCCCCCCCCCCc1nnc(N)o1 | > 100 µM | > 100 µM | > 100 µM | > 100 | > 100 µM | > 100 µM | > 100 µM | > 100 µM |  |  |  |  |  |  |  |  |  |  |  | 
13 | O=CN1N=C(c2ccc(Nc3ccnc4cc(Cl)ccc34)cc2)CC1c1ccc(Cl)cc1 (stereo unspecified) | > 100 µM | > 100 µM |  | > 100 | > 100 µM | > 100 µM | > 100 µM | > 100 µM | 4.77 µM | > 100 µM | 0.511 µM | 0.475 µM | > 100 | 7.86 µM |  | 0.992 | 0.847 µM | 0.538 µM | 2.4 | > 100 µM
14 | O=C(O)c1cc(=O)c2cc(C(=O)c3cccs3)c(Cl)c(Cl)c2o1 | > 100 µM | > 100 µM | > 100 µM | > 100 | > 100 µM | > 100 µM | > 100 µM |  |  |  |  |  |  |  |  |  |  |  |  | 
15 | COC1OC(C(C)O)C2OC(C)(C)OC12 (stereo unspecified) | > 100 µM | > 100 µM | > 100 µM | > 100 |  | > 100 µM | > 100 µM | > 100 µM |  | > 100 µM |  |  | > 100 |  |  |  |  |  |  | 
16 | O=C(CC(=O)C1CCOC1=O)C(=O)Nc1ccc(Cl)cc1 (stereo unspecified) | > 100 µM | > 100 µM | > 100 µM | > 100 | > 100 µM | > 100 µM | > 100 µM | > 100 µM |  |  |  |  |  |  |  |  |  |  |  | 
17 | Cc1ccc([N+](=O)[O-])c2c(NCCC[N+](C)(C)[O-])ccnc12 | > 100 µM | > 100 µM | > 100 µM | > 100 | > 100 µM | > 100 µM | > 100 µM | > 100 µM |  |  |  |  | > 100 |  |  |  |  |  |  | 
18 | CCCC(CCC)C(=O)OCC1(CO)C/C(=C\c2ccc(C(F)(F)F)cc2)C(=O)O1 (stereo unspecified) | 22.5 µM | 36 µM | 26.9 µM | 26.3 |  | 33.3 µM | 28.6 µM | 9.37 µM | 7.04 µM | 21 µM | 7.61 µM | 12.3 µM | 25.4 | 18.6 µM | 10.7 µM | 5.69 | 16.2 µM | 13.7 µM | 0.577 | 
19 | COc1ccc(C=C2C(=O)NC(=O)NC2=O)cc1OCc1ccccc1 |  | 79.4 µg/mL | 48.8 µg/mL |  |  |  |  |  | 16.8 µg/mL | 43.2 µg/mL | 31.2 µg/mL | 46.7 µg/mL |  | 25.6 µg/mL | 17.8 µg/mL |  | 29.2 µg/mL | 33 µg/mL |  | 57.2 µg/mL

From PubChem BioAssay (NCI)
